Source: US7244431B2, “Allergy vaccines and their preparation” (priority 2000, dated 2007)

Columns and labels:
[1] = system: IgE antibodies in sera from birch pollen allergic patients; experiment: ELISA detection of peptide- and rBet v 1-specific IgE antibodies; assay type: binding, human
Description: Birch pollen allergic patients suffering from allergic rhinoconjunctivitis and/or asthma to birch pollen and related allergens were selected according to case history indicative for seasonal birch pollinosis and characterized by skin prick testing with birch pollen extract and serological CAP RAST (Pharmacia Diagnostics, Uppsala, Sweden) testing. Total IgE levels in the sera were determined by CAP RIST measurements (Pharmacia). […] Sera from 60 birch pollen allergic patients and a non-atopic individual were used for IgE competition studies. The birch pollen allergic patients group consisted of 25 males and 35 females with a mean age of 37 years (ranging from 19-60 years) (Table 2).
Subsequently, plates were incubated with 1:3 diluted sera from 60 birch pollen allergic patients and from a non-atopic individual overnight at 4° C. Bound IgE antibodies were detected with a 1:1000 diluted alkaline-phosphatase-coupled mouse monoclonal anti-human IgE antibody (Pharmingen, San Diego, Calif.).

[2] = system: birch pollen allergic patients; experiment: Skin prick testing of allergic patients; assay type: in vivo, human; conditions: 100 μg/ml
Description: SPTs were performed on the individuals forearms as described ([…]. et al. (1997) J. Clin Invest. 99, 1673-168; Dreborg S: (1989) J. Am. Acad. DerMatol. 21, 820-821). […] In addition standardized skin prick solutions (birch pollen extract and histamine) (Allergopharma, Reinbek, Germany) were tested. Reactions were recorded 20 minutes after SPT by photography and by transferring the ballpoint pen-surrounded wheal area with a scotch tape to paper.

Sequence: CVDHTNFKYNYSVIEGGPIGDTLEKISNEIK [Peptide P6, Bet v 1-derived synthetic peptide, position aa 75-104, one cysteine added]
- IgE (OD) ([1]; serum of NHS, non-allergic control individual): — (Dashes indicate reactivities below the cut-off level (OD=0.050))
- IgE (OD) ([1]; serum of patient 1): — (Dashes indicate reactivities below the cut-off level (OD=0.050))
- IgE (OD) ([1]; serum of patient 2): — (Dashes indicate reactivities below the cut-off level (OD=0.050))
- IgE (OD) ([1]; serum of patient 3): — (Dashes indicate reactivities below the cut-off level (OD=0.050))
- IgE (OD) ([1]; serum of patient 4): — (Dashes indicate reactivities below the cut-off level (OD=0.050))
- IgE (OD) ([1]; serum of patient 5): — (Dashes indicate reactivities below the cut-off level (OD=0.050))
- IgE (OD) ([1]; serum of patient 6): — (Dashes indicate reactivities below the cut-off level (OD=0.050))
- IgE (OD) ([1]; serum of patient 7): — (Dashes indicate reactivities below the cut-off level (OD=0.050))
- IgE (OD) ([1]; serum of patient 8): — (Dashes indicate reactivities below the cut-off level (OD=0.050))
- IgE (OD) ([1]; serum of patient 9): — (Dashes indicate reactivities below the cut-off level (OD=0.050))
- IgE (OD) ([1]; serum of patient 10): — (Dashes indicate reactivities below the cut-off level (OD=0.050))
- IgE (OD) ([1]; serum of patient 11): — (Dashes indicate reactivities below the cut-off level (OD=0.050))
- IgE (OD) ([1]; serum of patient 12): — (Dashes indicate reactivities below the cut-off level (OD=0.050))
- IgE (OD) ([1]; serum of patient 13): — (Dashes indicate reactivities below the cut-off level (OD=0.050))
- IgE (OD) ([1]; serum of patient 14): — (Dashes indicate reactivities below the cut-off level (OD=0.050))
- IgE (OD) ([1]; serum of patient 15): — (Dashes indicate reactivities below the cut-off level (OD=0.050))
- IgE (OD) ([1]; serum of patient 16): — (Dashes indicate reactivities below the cut-off level (OD=0.050))
- IgE (OD) ([1]; serum of patient 17): — (Dashes indicate reactivities below the cut-off level (OD=0.050))
- IgE (OD) ([1]; serum of patient 18): — (Dashes indicate reactivities below the cut-off level (OD=0.050))
- IgE (OD) ([1]; serum of patient 19): — (Dashes indicate reactivities below the cut-off level (OD=0.050))
- IgE (OD) ([1]; serum of patient 20): — (Dashes indicate reactivities below the cut-off level (OD=0.050))
- IgE (OD) ([1]; serum of patient 21): — (Dashes indicate reactivities below the cut-off level (OD=0.050))
- IgE (OD) ([1]; serum of patient 22): — (Dashes indicate reactivities below the cut-off level (OD=0.050))
- IgE (OD) ([1]; serum of patient 23): — (Dashes indicate reactivities below the cut-off level (OD=0.050))
- IgE (OD) ([1]; serum of patient 24): — (Dashes indicate reactivities below the cut-off level (OD=0.050))
- IgE (OD) ([1]; serum of patient 25): — (Dashes indicate reactivities below the cut-off level (OD=0.050))
- IgE (OD) ([1]; serum of patient 26): — (Dashes indicate reactivities below the cut-off level (OD=0.050))
- IgE (OD) ([1]; serum of patient 27): — (Dashes indicate reactivities below the cut-off level (OD=0.050))
- IgE (OD) ([1]; serum of patient 28): — (Dashes indicate reactivities below the cut-off level (OD=0.050))
- IgE (OD) ([1]; serum of patient 29): — (Dashes indicate reactivities below the cut-off level (OD=0.050))
- IgE (OD) ([1]; serum of patient 30): — (Dashes indicate reactivities below the cut-off level (OD=0.050))
- IgE (OD) ([1]; serum of patient 31): — (Dashes indicate reactivities below the cut-off level (OD=0.050))
- IgE (OD) ([1]; serum of patient 32): — (Dashes indicate reactivities below the cut-off level (OD=0.050))
- IgE (OD) ([1]; serum of patient 33): — (Dashes indicate reactivities below the cut-off level (OD=0.050))
- IgE (OD) ([1]; serum of patient 34): — (Dashes indicate reactivities below the cut-off level (OD=0.050))
- IgE (OD) ([1]; serum of patient 35): — (Dashes indicate reactivities below the cut-off level (OD=0.050))
- IgE (OD) ([1]; serum of patient 36): — (Dashes indicate reactivities below the cut-off level (OD=0.050))
- IgE (OD) ([1]; serum of patient 37): — (Dashes indicate reactivities below the cut-off level (OD=0.050))
- IgE (OD) ([1]; serum of patient 38): — (Dashes indicate reactivities below the cut-off level (OD=0.050))
- IgE (OD) ([1]; serum of patient 39): — (Dashes indicate reactivities below the cut-off level (OD=0.050))
- IgE (OD) ([1]; serum of patient 40): — (Dashes indicate reactivities below the cut-off level (OD=0.050))
- IgE (OD) ([1]; serum of patient 41): — (Dashes indicate reactivities below the cut-off level (OD=0.050))
- IgE (OD) ([1]; serum of patient 42): — (Dashes indicate reactivities below the cut-off level (OD=0.050))
- IgE (OD) ([1]; serum of patient 43): — (Dashes indicate reactivities below the cut-off level (OD=0.050))
- IgE (OD) ([1]; serum of patient 44): — (Dashes indicate reactivities below the cut-off level (OD=0.050))
- IgE (OD) ([1]; serum of patient 45): — (Dashes indicate reactivities below the cut-off level (OD=0.050))
- IgE (OD) ([1]; serum of patient 46): — (Dashes indicate reactivities below the cut-off level (OD=0.050))
- IgE (OD) ([1]; serum of patient 47): — (Dashes indicate reactivities below the cut-off level (OD=0.050))
- IgE (OD) ([1]; serum of patient 48): — (Dashes indicate reactivities below the cut-off level (OD=0.050))
- IgE (OD) ([1]; serum of patient 49): — (Dashes indicate reactivities below the cut-off level (OD=0.050))
- IgE (OD) ([1]; serum of patient 50): — (Dashes indicate reactivities below the cut-off level (OD=0.050))
- IgE (OD) ([1]; serum of patient 51): — (Dashes indicate reactivities below the cut-off level (OD=0.050))
- IgE (OD) ([1]; serum of patient 52): — (Dashes indicate reactivities below the cut-off level (OD=0.050))
- IgE (OD) ([1]; serum of patient 53): — (Dashes indicate reactivities below the cut-off level (OD=0.050))
- IgE (OD) ([1]; serum of patient 54): — (Dashes indicate reactivities below the cut-off level (OD=0.050))
- IgE (OD) ([1]; serum of patient 55): — (Dashes indicate reactivities below the cut-off level (OD=0.050))
- IgE (OD) ([1]; serum of patient 56): — (Dashes indicate reactivities below the cut-off level (OD=0.050))
- IgE (OD) ([1]; serum of patient 57): — (Dashes indicate reactivities below the cut-off level (OD=0.050))
- IgE (OD) ([1]; serum of patient 58): — (Dashes indicate reactivities below the cut-off level (OD=0.050))
- IgE (OD) ([1]; serum of patient 59): — (Dashes indicate reactivities below the cut-off level (OD=0.050))
- IgE (OD) ([1]; serum of patient 60): — (Dashes indicate reactivities below the cut-off level (OD=0.050))
- mean wheal diameter ([2]; individual 1): 0 mm
- mean wheal diameter ([2]; individual 2): 0 mm
- mean wheal diameter ([2]; individual 3): 0 mm
- mean wheal diameter ([2]; individual 4): 0 mm
- mean wheal diameter ([2]; individual 5): 0 mm
- mean wheal diameter ([2]; individual 6 (allergic, without birch pollen allergy)): 0 mm
